These are literature values, as cited in patent US20240390871A1, “Production of encapsulated nanoparticles at high volume fractions” (iCeutica Pty Ltd., priority 2009, published 2024).

The conditions of this data set: previous animal studies; reducing the size of metaxalone.

The structures appear in SMILES notation.

`Cc1cc(C)cc(OCC2CNC(=O)O2)c1` (stereo not shown) [metaxalone]: the “rates of absorption and overall bioavailability (as measured by AUC)” value was “much higher rates of absorption and overall bioavailability”.
